Columns and labels:
[1] = tested on: P. acnes 706486; experiment: Bacteriocidal effect of IAA with or without IPL irradiation on P. acnes, colony count; assay type: cell-based, Propionibacterium acnes
Procedure: (§1) P. acnes 706486 and S. aureus W-1-14 was used for this experiment. Mueller Hinton II broth (Becton, Dickinson Co., Sparks, U.S.A) was used for culture of bacteria. The cultured S. aureus colony was dissolved with phosphate buffered saline (PBS, Invitrogen Co., NY, U.S.A) such that the McFarland turbidity became 0.5. The resultant bacterial solution was at the concentration of […]. Then, the bacterial solution was further diluted to the concentration of 1×10^8/ml and 10 μl of the bacterial solution was spread onto the Mueller Hinton II agar (Becton, Dickinson Co., Sparks, U.S.A) plate followed by drying in clean bench for 30 min. IAA was dissolved with Dulbecco's phosphate buffered saline (DPBS, Invitrogen Co., NY, U.S.A) to obtain samples of IAA concentration of 20 mM, 10 mM, 5 mM, 1 mM and 0.5 mM. Three minutes after adding 4 ml of 0 mM, 0.5 mM, 1 mM, 5 mM, 10 mM, and 20 mM IAA solution to 6 bacterial solution inoculated mediums respectively, Intermittent Pulse Laser (IPL, Ellipse Flex DDD, Denmark) was irradiated to the mediums. 10 J/cm^2 of the IPL of wavelength of 400 nm to 720 nm was irradiated to the mediums, using an applicator equipped with a filter. One minute after IPL irradiation, the mediums were washed for two times with PBS and incubated at 37° C. for 24 hrs and then the number of colonies was counted respectively. Four minutes after adding 4 ml of 0 mM, 0.5 mM, 1 mM, 5 mM, 10 mM, and 20 mM IAA solution to another 6 bacterial solution inoculated mediums, the mediums were treated as the above-mentioned process except that IPL was not irradiated, and then the number of colonies was counted respectively. The above-mentioned process was repeated except that P. acnes inoculated mediums were employed in place of S. aureus inoculated mediums and cultured in an anaerobic chamber substituted with nitrogen, and then the number of colonies was counted.

[2] = Improvement of acne by IAA and light, half-face, count of inflammatory lesions; assay type: in vivo
From the text: IAA was applied to only half of face and 20 J of IPL was irradiated. The face was irradiated 3 times at 2 weeks intervals and the number of inflammatory lesions was counted.

[3] = tested on: S. aureus W-1-14; experiment: Bacteriocidal effect of IAA with or without IPL irradiation on S. aureus, colony count; assay type: cell-based, Staphylococcus aureus
Procedure: as §1

[4] = Sebum secretion inhibition by IAA and IPL, half-face; assay type: in vivo
Procedure: As described in Example 2, IAA was applied to only half of face and 20 J of IPL was irradiated. The face was irradiated 3 times at 2 weeks intervals and the amount of sebum secretion was measured.

[5] = IAA with IPL, irradiated 3 times at 2 weeks intervals

With `O=C(O)Cc1c[nH]c2ccccc12` [IAA, Indole-3-acetic acid] the number of colonies ([1]; 5 mM or more IAA solution, IPL not irradiated) was 68 % of control group, the growth of bacteria ([1]; 20 mM IAA solution, with IPL irradiation) was “no growth of bacteria” and the “inhibitory effects on P. acnes proliferation” value ([1]; IAA with IPL irradiation, 10 J/cm^2, 400 nm to 720 nm) was “dramatic inhibitory effects”. For the same compound, the “Number of inflammatory lesion (mean ± SD), T1” value ([2]; IAA + IPL 20 J, after 2 weeks, n = 14, baseline T0 16.21 ± 9.18) was 15.50 ± 9.03, the “Number of inflammatory lesion (mean ± SD), T2” value ([2]; IAA + IPL 20 J, after 4 weeks, n = 14, baseline T0 16.21 ± 9.18) was 13.93 ± 8.54 and the “Number of inflammatory lesion (mean ± SD), T3” value ([2]; IAA + IPL 20 J, after 6 weeks, n = 14, baseline T0 16.21 ± 9.18) was 13.93 ± 8.30. For the same compound, the “Change in number of inflammatory lesion T1-T0 (mean ± SD)” value ([2]; IAA + IPL, 2 weeks versus baseline, p 0.246) was −0.71 ± 2.20, the “Change in number of inflammatory lesion T2-T0 (mean ± SD)” value ([2]; IAA + IPL, 4 weeks versus baseline, p 0.024) was −2.29 ± 3.36 and the “Change in number of inflammatory lesion T3-T0 (mean ± SD)” value ([2]; IAA + IPL, 6 weeks versus baseline, p 0.026) was −2.29 ± 3.41. For the same compound, the “improvement of acne (number of inflammatory lesions)” value [2, 5] was “significant improvement”, the number of colonies ([3]; 20 mM IAA solution, without IPL irradiation) was 60 % of control group and the number of colonies ([3]; IPL irradiation and 0.5 mM IAA solution) was 63 % of control group. The number of colonies ([3]; IPL irradiation and 1 mM IAA solution) was 32 % of control group, the “sebum secretion (mean ± SD), T1” value ([4]; IAA + IPL 20 J, after 2 weeks, n = 14, baseline T0 99.64 ± 56.93) was 114.71 ± 63.83 and the “sebum secretion (mean ± SD), T2” value ([4]; IAA + IPL 20 J, after 4 weeks, n = 14, baseline T0 99.64 ± 56.93) was 70.43 ± 42.80. The “sebum secretion (mean ± SD), T3” value ([4]; IAA + IPL 20 J, after 6 weeks, n = 14, baseline T0 99.64 ± 56.93) was 65.79 ± 27.90, the “Change of sebum secretion T1-T0 (mean ± SD)” value ([4]; IAA + IPL, 2 weeks versus baseline, p 0.433) was 15.07 ± 69.70 and the “Change of sebum secretion T2-T0 (mean ± SD)” value ([4]; IAA + IPL, 4 weeks versus baseline, p 0.032) was −29.21 ± 45.67. The “Change of sebum secretion T3-T0 (mean ± SD)” value ([4]; IAA + IPL, 6 weeks versus baseline, p 0.015) was −33.86 ± 44.98 and the “inhibitory effect of sebum secretion” value [4, 5] was “significant inhibitory effect of sebum secretion”.

Reference: patent publication US20130226069A1, “ACNE THERAPEUTIC AGENT AND SEBUM SECERNENT INHIBITOR WHICH COMPRISE INDOLE-3-ALKYLCARBO XYLICACID, AND KITS FOR PHOTODYNAMIC THERAPY CONTAINING THE SAME” (WELSKIN CO., LTD., priority 2007, published 2013)
